Columns and labels:
[1] = system: HPK1; experiment: Western blot of immunoprecipitated HPK1 with anti-phosphorylated PKA substrate antibody; format: cell-based, human; conditions: Jurkat T cells stimulated with PGE2 for 10 min
Description: The primary sequence of HPK1 was examined for the preferred PKA phosphorylation site on HPK1. Within the activation loop of HPK1, there exists a perfect PKA phosphorylation site at serine 171 (FIG. 12A). This serine is conserved in all members of the KHS subfamily of STE20 kinases. To determine whether PKA can directly phosphorylate HPK1 upon stimulation by PGE2, experiments were conducted using an anti-phospho PKA substrate antibody that recognizes the arginine-based motif that is present at sites that are phosphorylated by PKA (FIG. 12A).
In these experiments, Jurkat T cells were stimulated with PGE2 for 10 min., lysed, and immunoprecipitated HPK1 was subjected to Western blot analysis using anti-phosphorylated PKA substrate antibody. […] Similarly, the antibody also recognized HPK1 immunoprecipitated from cells that were treated with anti-CD3 (FIG. 12B, lane 2).

[2] = system: HPK1; experiment: HPK1 IVK assay in primary splenocytes / T lymphocytes; format: cell-based, mouse; conditions: primary T lymphocytes (C57BL/6 splenocytes), 10 nM PGE2, 5 min
Description: Splenocytes from wild type C57BL/6 were harvested, lysed with RBC lysis buffer (Sigma) and stimulated with 1 μg/ml plate bound anti-CD3 and anti-CD28 or 10 nM PGE2 alone (Calbiochem) for 5 min. at 37° C. Whole cell lysates were subjected to immunoprecipitation with anti-HPK1 antibodies #5 and #6, then subjected to IVK as described in Kiefer et al. (1996, EMBO J. 15:7013-7025). Anti-HPK1 antibody #2 was used as a blotting antibody.
Splenocytes from wild type C57BL/6 were harvested, lysed with RBC lysis buffer (Sigma) and stimulated with 1 μg/ml plate bound anti-CD3 and 1 μg/ml soluble anti-CD28 or with 10 nM PGE2 (Calbiochem) for 5 min. at 37° C. Whole cell lysates were subjected to immunoprecipitation with anti-HPK1 antibodies #5 and #6 and then subjected to IVK as described (1). Anti-HPK1 antibody #2 was used as a blotting antibody.

[3] = system: wild type HEK 293-EBNA cell line; experiment: IVK assay of HA-HPK1 from wild type HEK 293-EBNA cells (no EP2/EP4); format: cell-based, human; conditions: absence of EP2 and EP4 receptor, PGE2 stimulation
[4] = system: CD4+ T cells; experiment: Intracellular IL-2 staining of CD4+ T cells (FACS); format: cell-based, mouse
Description: Purified naïve wild type and HPK1^−/− splenocytes were expanded with 10 μg/ml ConA for three days with or without 10 nM PGE2. 10^6 cells were seeded onto a 96-well plate and cells were either left unstimulated or were stimulated with 1 μg/ml anti-CD3 and anti-CD28 for 6 hours in the presence of GolgiStop™ (BD Pharmingen). Cells were washed with buffer containing 0.1% saponin and 0.1% BSA followed by incubation with anti-IL-2-PE for 30 min. IL-2 levels were read by flow cytometry using FACSCalibur™.
RBC-lysed wild type and HPK1^−/− splenocytes were stimulated with or without 1 nM PGE2 and 2 μg/ml anti-CD3 plus 1 μg/ml anti-CD28 for 48 hours in the presence of GolgiStop™ (BD Pharmingen) for the last five hours of culture. For profiling experiments, RBC-lysed splenocytes were stimulated with anti-CD3 and anti-CD28 for 24 hours, and GolgiStop was added in the last five hours. Cells were then fixed with 2% paraformaldehyde followed by permeabilization with a buffer containing 0.1% saponin and 0.1% BSA and the different conjugated antibodies for 30 min. Cytokine levels were read by flow cytometry using FACSCalibur™ and analyzed using Flowjo software.

[5] = molecular target: EP4 receptor (Homo sapiens, UniProt P35408); experiment: IVK assay of HA-HPK1 from 293-EP4 transfectants; conditions: PGE2 stimulation
EP4 receptor, sequence (P35408 whole entry): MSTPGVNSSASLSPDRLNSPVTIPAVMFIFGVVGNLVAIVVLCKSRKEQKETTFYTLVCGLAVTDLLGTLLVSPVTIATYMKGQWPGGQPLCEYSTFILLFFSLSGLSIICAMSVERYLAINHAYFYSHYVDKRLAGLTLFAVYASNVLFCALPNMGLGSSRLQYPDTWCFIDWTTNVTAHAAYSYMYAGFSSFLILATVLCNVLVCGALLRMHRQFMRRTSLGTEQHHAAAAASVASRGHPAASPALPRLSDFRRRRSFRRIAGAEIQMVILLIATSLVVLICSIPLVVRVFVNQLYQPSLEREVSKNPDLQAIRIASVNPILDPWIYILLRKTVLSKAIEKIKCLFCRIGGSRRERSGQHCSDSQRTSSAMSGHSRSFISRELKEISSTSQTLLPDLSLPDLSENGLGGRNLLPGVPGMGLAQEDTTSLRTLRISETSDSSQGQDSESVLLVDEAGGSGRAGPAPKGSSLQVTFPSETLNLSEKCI

[6] = molecular target: T1, EP2 receptor (Homo sapiens, UniProt P43116); experiment: IVK assay of HA-HPK1 from 293-EP2 transfectants; format: cell-based; conditions: PGE2 stimulation
T1 construct: expressed in transfected cells; host or cells: HEK 293 (293-EP2), also transiently transfected with HA-HPK1
T1 sequence (P43116 whole entry): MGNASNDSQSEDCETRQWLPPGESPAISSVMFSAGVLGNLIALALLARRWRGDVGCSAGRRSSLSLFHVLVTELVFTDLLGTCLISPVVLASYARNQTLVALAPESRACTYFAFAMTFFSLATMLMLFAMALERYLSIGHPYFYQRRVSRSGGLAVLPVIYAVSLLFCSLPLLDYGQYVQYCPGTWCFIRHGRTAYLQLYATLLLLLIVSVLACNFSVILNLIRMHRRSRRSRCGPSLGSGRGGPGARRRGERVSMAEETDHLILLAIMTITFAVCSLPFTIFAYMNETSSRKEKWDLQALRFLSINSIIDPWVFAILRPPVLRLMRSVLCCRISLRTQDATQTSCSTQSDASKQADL

[7] = system: T cells; experiment: FACS of TCR-stimulated T cells: Foxp3 expression and side-scatter profile; format: cell-based, mouse
Description: This is due in part to the fact that HPK^−/− T cells produce more IL-2. However, other factors may play a role in the increased percentage of cells expressing CD25. To determine whether regulatory T cell (Treg) transcription factor, Foxp3, was a factor, the expression of […] in HPK^−/− cells was examined in this population. It has been shown that PGE2 induces the expression of Foxp3 in both human and mouse T cells. Because of the inhibitory nature of these T cell subsets, there was a question of whether the conditions of stimulation generated fewer Tregs in the HPK1^−/− culture, as this might explain the enhanced functionality of these T cells.
However, a decrease was detected in the number of cells in the side-scatter profile of wild type T cells exposed to PGE2, indicating a decrease in cell viability. […] Indeed, when these cells were stained for annexin V to determine the amount of apoptosis, PGE2 did increase the number of wild type cells undergoing apoptosis by over 75%, compared to 47% in cells not treated with PGE2.

[8] = system: T cells; experiment: T cell proliferation on anti-CD3/anti-CD28 TCR crosslinking, 3H-thymidine; format: cell-based, mouse
Description: Naïve T cells (2×10^5) were seeded onto a 96-well plate and incubated with 1 μg/ml anti-CD3 and anti-CD28 or 10 μg/ml ConA for three days in the presence or absence of 100 pM PGE2 and then pulsed with 1 μCi/well ^3H thymidine (MP Biomedicals, Irvine, Calif.) for 18 hours before harvesting.
T cells were negatively selected using the Pan T cell isolation kit (Miltenyi Biotech Inc., Auburn, Calif.). […] 2×10^5 Naïve T cells were seeded on a 96-well plate and incubated with various dilutions of anti-CD3 and 1 μg/ml of anti-CD28 for 72 hours in the presence or absence of 1 nM PGE2 and then pulsed with 1 μCi/well ^3H thymidine (MP Biomedicals, Irvine, Calif.) for 18 hours before harvest.

[9] = Example 4, 10 nM PGE2, restimulated anti-CD3/anti-CD28
[10] = Example 4, 100 pM PGE2, three days

Structure (SMILES): CCCCC[C@H](O)/C=C/[C@H]1[C@H](O)CC(=O)[C@@H]1C/C=C\CCCC(=O)O [PGE2, prostaglandin E2]
- recognition of HPK1 by anti-phosphorylated PKA substrate antibody [1]: recognized the phosphorylated HPK1
- increase in HPK1 kinase activity [2]: three-fold
- HPK1 kinase activity (IVK), wild type HEK 293-EBNA [3]: failed to respond
- CD4+ HPK1−/− cells still producing IL-2 after PGE2 addition [4, 9]: over 45%
- wild type cells producing IL-2 after PGE2 addition [4, 9]: less than 10%
- CD4+ HPK1−/− T cells still producing IL-2 after co-culture with PGE2 ([4]; Example 7, 1 nM PGE2, 48 hours): over 22%
- wild type cells producing IL-2 after co-culture with PGE2 ([4]; Example 7, 1 nM PGE2, 48 hours): < 5%
- HPK1 kinase activity (IVK), 293-EP4 transfectants [5]: responded robustly
- HPK1 kinase activity (IVK), 293-EP2 transfectants [6]: responded robustly
- Foxp3 expression ([7]; HPK+/+ or HPK−/− cells, TCR crosslinking 3 days, with versus without PGE2): did not induce a higher Foxp3 expression
- number of cells in the side-scatter profile (cell viability), wild type T cells ([7]; exposed to PGE2): decrease
- pattern of side-scatter, HPK1−/− T cells ([7]; with or without PGE2): no difference
- inhibition of proliferation, HPK1−/− T cells, anti-CD3/anti-CD28 [8, 10]: 18%
- inhibition of proliferation, wild type T cells, anti-CD3/anti-CD28 [8, 10]: ~80%
- inhibition of proliferation, HPK1−/− T cells, TCR cross-linking ([8]; Example 8, 1 nM PGE2, 72 hours): ~20%
- inhibition of proliferation, wild type T cells, TCR cross-linking ([8]; Example 8, 1 nM PGE2, 72 hours): ~80%

From patent publication US20070087988A1, “Hematopoietic progenitor kinase 1 for modulation of an immune response” (New York University, priority 2005, published 2007)
